# Results: patent publication US12527835B2, “Brevican-binding peptides for brain tumor imaging” (The Brigham and Women's Hospital, Inc., priority 2018, dated 2026)
# Tests used:
# human BBB organoids = assay: BBB organoid peptide permeability assay; assay type: in vitro ADME; conditions: Cy5.5-labeled peptide, 10 μM, 3 hrs
# Protocol: Immortalized hCMEC/D3, primary HBVP and primary human astrocytes were used for generation of BBB organoids as previously described (Cho et al., Nat Commun 8, 15623 (2017); Fadzen et al., J. Am. Chem. Soc. 139, 15628-15631 (2017)). Briefly, agarose (0.5 g) was dissolved in 50 mL of MilliQ water or PBS in a conical flask and the solution was heated in a microwave for 1-2 minutes until completely dissolved. Melted agarose was transferred into a sterile tissue culture hood and immediately poured into a 50-mL sterile basin. 50 μL of melted agarose was dispensed into each well in a 96-well plate using a multichannel pipette. The plate was set aside to allow agarose to solidify completely inside the wells for at least 15 minutes. […] Each cell type was counted using a hemocytometer, and 1,500 of each cell type were seeded into each well containing solidified agarose. […]
# For peptide permeability analyses, after 48 hrs, organoids that formed successfully were pooled together into a 0.5-mL microcentrifuge tube in BBB working medium. […] The organoids were then transferred onto a thin-well chambered coverglass and imaged by confocal fluorescence microscopy. Quantification of peptide permeability was performed using the ImageJ software, where the mean fluorescence intensity of the core of each spheroid (at a depth between 50-90 μm) was measured, and then plotted on GraphPad Prism.
# [1] = cited from earlier work
SMILES,influx into the core of the BBB organoids (human BBB organoids),solubility of CPT itself [1]
"CC(C)[C@@H](NC(=O)[C@@H](Cc1c[nH]cn1)NC(=O)CNC(=O)[C@@H](Cc1c[nH]c2ccccc12)NC(=O)[C@@H](CCCCN)NC(=O)[C@H](N)[C@H](C)O)C(=O)N[C@H](CC(N)=O)C(=O)N[C@H](CCCCN)C(N)=O [BTP-7, TKWGHVNK]",dramatic influx,–
"CC[C@@]1(O)C(=O)OCc2c1cc1n(c2=O)Cc2cc3ccccc3nc2-1 [CPT, camptothecin]",–,insoluble
